# Measured values from patent US20150202192A1, “PHARMACEUTICAL COMPOSITION FOR TREATING GASTRO-OESOPHAGEAL REFLUX DISEASE” (priority 2012, published 2015).
# System: Helicobacter pylori
# Assay: Clinical study in GERD patients: biopsy of antrum and gastric corpus for Helicobacter pylori (cytology/histology, urease test)
# Assay type: in vivo, human
# Conditions: after treatment, biopsy after completion of the 56-day course, n = 10
# From the text: (§1) The study included 100 patients with endoscopically negative GERD form, i.e. men and women aged 19 to 50 years old infected with H. pilori.
# (§2) All the patients received treatment on a similar pattern: they received the composition of a proton pump inhibitor and a prebiotic 2 times a day for 56 days.
# In all patients, before treatment and in 4 weeks (1 month) after completion of the treatment course the biopsy of the antrum and gastric corpus was made for the presence of Helicobacter pylori. For HP diagnostics the following was used:
# 1. Cytological and histological biopsy of mucosa of the antrum and gastric corpus obtained in gastroscopy.
# 2. Urease test, in which the mucous membrane biopsy material obtained from the antrum and the gastric corpus were examined for the presence of urease, an enzyme specific for Helicobacter pylori.
# (§3) Repeated visits were made in 2 and 5 weeks after the treatment start; during the visits treatment efficacy and safety were determined, besides, it was determined if the therapy could be continued. In 56 days (8 weeks) after the therapy start, the patient came to a visit, wherein efficacy and safety of treatment was evaluated and the treatment was terminated. In 11 weeks after the treatment start, the final visit was made which included esophagogastroduodenoscopy with byopsy of the antrum and the gastric corpus for HP detection.
SMILES,release Helicobacter pylori in the antrum [%],release Helicobacter pylori in the stomach [%]
"COCCCOc1ccnc(C[S+]([O-])c2nc3ccccc3[nH]2)c1C (stereo not shown) [group IX, rabeprazole]",100,80
"COc1ccc2[nH]c([S+]([O-])Cc3ncc(C)c(OC)c3C)nc2c1 (stereo not shown) [group VI, omeprazole]",100,70
"COc1ccnc(C[S+]([O-])c2nc3ccc(OC(F)F)cc3[nH]2)c1OC (stereo not shown) [group VII, pantoprazole]",100,80
"Cc1c(OCC(F)(F)F)ccnc1C[S+]([O-])c1nc2ccccc2[nH]1 (stereo not shown) [group VIII, lansoprazole]",100,70
"COc1ccc2nc([S@@+]([O-])Cc3ncc(C)c(OC)c3C)[nH]c2c1 [group X, esomeprazole]",100,80

# Same assay, conditions: before treatment, n = 10
SMILES,release Helicobacter pylori in the antrum [%],release Helicobacter pylori in the stomach [%]
"COCCCOc1ccnc(C[S+]([O-])c2nc3ccccc3[nH]2)c1C (stereo not shown) [group IX, rabeprazole]",100,20
"COc1ccc2[nH]c([S+]([O-])Cc3ncc(C)c(OC)c3C)nc2c1 (stereo not shown) [group VI, omeprazole]",100,20
"COc1ccnc(C[S+]([O-])c2nc3ccc(OC(F)F)cc3[nH]2)c1OC (stereo not shown) [group VII, pantoprazole]",100,20
"Cc1c(OCC(F)(F)F)ccnc1C[S+]([O-])c1nc2ccccc2[nH]1 (stereo not shown) [group VIII, lansoprazole]",100,20
"COc1ccc2nc([S@@+]([O-])Cc3ncc(C)c(OC)c3C)[nH]c2c1 [group X, esomeprazole]",100,20

# System: intestinal bacteria
# Assay: not given
# Conditions: humans, 3 g daily dose; cited from earlier work
SMILES,number of Bifidobacteria and Lactobacillus,"number of Clostridium perfringens, Bacteroides, Enterobacteriaceae, and Streptococcus"
OC[C@H]1O[C@@H](O[C@@H]2[C@@H](CO)OC(O)(CO)[C@H]2O)[C@H](O)[C@@H](O)[C@H]1O (mixture of isomers) [lactulose],significant increase,decrease

# System: not listed separately
# Assay: Clinical study in GERD patients: quality of life by Visual Analog Scale
# Assay type: in vivo, human
# Conditions: after treatment (56 days), n = 10
row,SMILES,Quality of life no VAC [MM]
1,"COCCCOc1ccnc(C[S+]([O-])c2nc3ccccc3[nH]2)c1C (stereo not shown) [group IX, rabeprazole]",87.3 ± 19.5
2,"COc1ccc2[nH]c([S+]([O-])Cc3ncc(C)c(OC)c3C)nc2c1 (stereo not shown) [group VI, omeprazole]",87.6 ± 21.2
3,"COc1ccnc(C[S+]([O-])c2nc3ccc(OC(F)F)cc3[nH]2)c1OC (stereo not shown) [group VII, pantoprazole]",87.6 ± 21.2
4,"Cc1c(OCC(F)(F)F)ccnc1C[S+]([O-])c1nc2ccccc2[nH]1 (stereo not shown) [group VIII, lansoprazole]",84.2 ± 21.5
5,"COc1ccc2nc([S@@+]([O-])Cc3ncc(C)c(OC)c3C)[nH]c2c1 [group X, esomeprazole]",87.6 ± 21.2

# Same assay, conditions: before treatment, n = 10
row,SMILES,Quality of life no VAC [MM]
1,"COCCCOc1ccnc(C[S+]([O-])c2nc3ccccc3[nH]2)c1C (stereo not shown) [group IX, rabeprazole]",58.5 ± 20.2
2,"COc1ccc2[nH]c([S+]([O-])Cc3ncc(C)c(OC)c3C)nc2c1 (stereo not shown) [group VI, omeprazole]",58.1 ± 18.9
3,"COc1ccnc(C[S+]([O-])c2nc3ccc(OC(F)F)cc3[nH]2)c1OC (stereo not shown) [group VII, pantoprazole]",58.1 ± 18.9
4,"Cc1c(OCC(F)(F)F)ccnc1C[S+]([O-])c1nc2ccccc2[nH]1 (stereo not shown) [group VIII, lansoprazole]",57.4 ± 17.5
5,"COc1ccc2nc([S@@+]([O-])Cc3ncc(C)c(OC)c3C)[nH]c2c1 [group X, esomeprazole]",58.1 ± 18.9

# System: not listed separately
# Assay: Clinical study in GERD patients: tolerability (diarrhea, flatulence, AE necessitating discontinuation)
# Assay type: in vivo, human
# Conditions: after treatment (56 days), n = 10
# From the text: as §1
# All the patients were divided into 10 groups of 10 persons each, of whom 5 groups (I-V) were experimental ones, while 5 groups (VI-X) were control ones.
# In the experimental groups patients received orally the claimed dosage forms based on PPI and a prebiotic; Group I—a composition which contained omeprazole and lactulose as active components; Group II—a composition which contained pantoprazole and lactitol as active components; Group III—a composition which contained lansoprazole and inulin as active components; Group IV—a composition which contained rabeprazole and fructooligosaccharides as active components; Group V—a composition which contained esomeprazole and lactulose as active components.
# In the control groups the patients received PPI monotherapy orally: Group VI—omeprazole; Group VII—pantoprazole; Group VIII—lansoprazole; Group IX—rabeprazole and Group X—esomeprazole.
# as §2
# The patients kept their diaries in which they made daily records of the time when they took drugs, recorded disease symptom severity according to Likert scale, severity of meteorism, defecation frequency, etc.
# as §3
SMILES,"AE, necessitating discontinuation of therapy [%]",Presence diarrhea [%],Presence flatulence [%]
"COCCCOc1ccnc(C[S+]([O-])c2nc3ccccc3[nH]2)c1C (stereo not shown) [group IX, rabeprazole]",0,20,50
"COc1ccc2[nH]c([S+]([O-])Cc3ncc(C)c(OC)c3C)nc2c1 (stereo not shown) [group VI, omeprazole]",0,20,60
"COc1ccnc(C[S+]([O-])c2nc3ccc(OC(F)F)cc3[nH]2)c1OC (stereo not shown) [group VII, pantoprazole]",0,20,50
"Cc1c(OCC(F)(F)F)ccnc1C[S+]([O-])c1nc2ccccc2[nH]1 (stereo not shown) [group VIII, lansoprazole]",0,20,60
"COc1ccc2nc([S@@+]([O-])Cc3ncc(C)c(OC)c3C)[nH]c2c1 [group X, esomeprazole]",0,20,60

# Same assay, conditions: before treatment, n = 10
SMILES,Presence diarrhea [%],Presence flatulence [%]
"COCCCOc1ccnc(C[S+]([O-])c2nc3ccccc3[nH]2)c1C (stereo not shown) [group IX, rabeprazole]",0,20
"COc1ccc2[nH]c([S+]([O-])Cc3ncc(C)c(OC)c3C)nc2c1 (stereo not shown) [group VI, omeprazole]",0,20
"COc1ccnc(C[S+]([O-])c2nc3ccc(OC(F)F)cc3[nH]2)c1OC (stereo not shown) [group VII, pantoprazole]",0,10
"Cc1c(OCC(F)(F)F)ccnc1C[S+]([O-])c1nc2ccccc2[nH]1 (stereo not shown) [group VIII, lansoprazole]",0,10
"COc1ccc2nc([S@@+]([O-])Cc3ncc(C)c(OC)c3C)[nH]c2c1 [group X, esomeprazole]",0,10

# System: not listed separately
# Assay: Clinical study in GERD patients: hydrogen breathing test for bacterial overgrowth syndrome
# Assay type: in vivo, human
# Conditions: after treatment (Day 56), n = 10
# From the text: as §1, §2
# Before and after treatment course (on Day 56) all the patients were subjected to hydrogen breathing test on the presence of bacterial overgrowth syndrome.
row,SMILES,Presence bacterial overgrowth syndrome [%]
1,"COCCCOc1ccnc(C[S+]([O-])c2nc3ccccc3[nH]2)c1C (stereo not shown) [group IX, rabeprazole]",40
2,"COc1ccc2[nH]c([S+]([O-])Cc3ncc(C)c(OC)c3C)nc2c1 (stereo not shown) [group VI, omeprazole]",50
3,"COc1ccnc(C[S+]([O-])c2nc3ccc(OC(F)F)cc3[nH]2)c1OC (stereo not shown) [group VII, pantoprazole]",40
4,"Cc1c(OCC(F)(F)F)ccnc1C[S+]([O-])c1nc2ccccc2[nH]1 (stereo not shown) [group VIII, lansoprazole]",50
5,"COc1ccc2nc([S@@+]([O-])Cc3ncc(C)c(OC)c3C)[nH]c2c1 [group X, esomeprazole]",50

# Same assay, conditions: before treatment, n = 10
row,SMILES,Presence bacterial overgrowth syndrome [%]
1,"COCCCOc1ccnc(C[S+]([O-])c2nc3ccccc3[nH]2)c1C (stereo not shown) [group IX, rabeprazole]",10
2,"COc1ccc2[nH]c([S+]([O-])Cc3ncc(C)c(OC)c3C)nc2c1 (stereo not shown) [group VI, omeprazole]",10
3,"COc1ccnc(C[S+]([O-])c2nc3ccc(OC(F)F)cc3[nH]2)c1OC (stereo not shown) [group VII, pantoprazole]",10
4,"Cc1c(OCC(F)(F)F)ccnc1C[S+]([O-])c1nc2ccccc2[nH]1 (stereo not shown) [group VIII, lansoprazole]",10
5,"COc1ccc2nc([S@@+]([O-])Cc3ncc(C)c(OC)c3C)[nH]c2c1 [group X, esomeprazole]",10

# System: not listed separately
# Assay: Clinical study in GERD patients: symptom severity (pyrosis, regurgitation) on Likert scale
# Assay type: in vivo, human
# Conditions: after treatment (oral, 2 times a day for 56 days), n = 10
SMILES,Intensity pyrosis on scale Likert [ball],Intensity regurgitation on scale Likert [ball]
"COCCCOc1ccnc(C[S+]([O-])c2nc3ccccc3[nH]2)c1C (stereo not shown) [group IX, rabeprazole]",1.2 ± 0.6,1.1 ± 0.3
"COc1ccc2[nH]c([S+]([O-])Cc3ncc(C)c(OC)c3C)nc2c1 (stereo not shown) [group VI, omeprazole]",1.2 ± 0.6,1.1 ± 0.3
"COc1ccnc(C[S+]([O-])c2nc3ccc(OC(F)F)cc3[nH]2)c1OC (stereo not shown) [group VII, pantoprazole]",1.0 ± 0.4,1.2 ± 0.3
"Cc1c(OCC(F)(F)F)ccnc1C[S+]([O-])c1nc2ccccc2[nH]1 (stereo not shown) [group VIII, lansoprazole]",1.1 ± 0.5,1.1 ± 0.2
"COc1ccc2nc([S@@+]([O-])Cc3ncc(C)c(OC)c3C)[nH]c2c1 [group X, esomeprazole]",1.1 ± 0.2,1.3 ± 0.1

# Same assay, conditions: before treatment, n = 10
SMILES,Intensity pyrosis on scale Likert [ball],Intensity regurgitation on scale Likert [ball]
"COCCCOc1ccnc(C[S+]([O-])c2nc3ccccc3[nH]2)c1C (stereo not shown) [group IX, rabeprazole]",3.6 ± 0.7,3.5 ± 1.1
"COc1ccc2[nH]c([S+]([O-])Cc3ncc(C)c(OC)c3C)nc2c1 (stereo not shown) [group VI, omeprazole]",3.6 ± 0.8,3.5 ± 1.2
"COc1ccnc(C[S+]([O-])c2nc3ccc(OC(F)F)cc3[nH]2)c1OC (stereo not shown) [group VII, pantoprazole]",3.3 ± 0.5,3.4 ± 1.1
"Cc1c(OCC(F)(F)F)ccnc1C[S+]([O-])c1nc2ccccc2[nH]1 (stereo not shown) [group VIII, lansoprazole]",3.4 ± 0.7,3.6 ± 1.1
"COc1ccc2nc([S@@+]([O-])Cc3ncc(C)c(OC)c3C)[nH]c2c1 [group X, esomeprazole]",3.5 ± 0.9,3.6 ± 1.1

# Same assay, conditions: oral, 2 times a day for 56 days, n = 10
SMILES,medium term arresting pyrosis [days],medium term arresting regurgitation [days]
"COCCCOc1ccnc(C[S+]([O-])c2nc3ccccc3[nH]2)c1C (stereo not shown) [group IX, rabeprazole]",7.8 ± 3.5,7.5 ± 3.4
"COc1ccc2[nH]c([S+]([O-])Cc3ncc(C)c(OC)c3C)nc2c1 (stereo not shown) [group VI, omeprazole]",7.8 ± 3.5,7.5 ± 3.4
"COc1ccnc(C[S+]([O-])c2nc3ccc(OC(F)F)cc3[nH]2)c1OC (stereo not shown) [group VII, pantoprazole]",7.5 ± 3.1,7.6 ± 3.4
"Cc1c(OCC(F)(F)F)ccnc1C[S+]([O-])c1nc2ccccc2[nH]1 (stereo not shown) [group VIII, lansoprazole]",7.8 ± 3.3,7.7 ± 3.2
"COc1ccc2nc([S@@+]([O-])Cc3ncc(C)c(OC)c3C)[nH]c2c1 [group X, esomeprazole]",7.7 ± 3.1,7.2 ± 3.1
